Target: T1, rat CB2 (Rattus norvegicus, UniProt Q9QZN9)
T1 sequence (Q9QZN9 1-360): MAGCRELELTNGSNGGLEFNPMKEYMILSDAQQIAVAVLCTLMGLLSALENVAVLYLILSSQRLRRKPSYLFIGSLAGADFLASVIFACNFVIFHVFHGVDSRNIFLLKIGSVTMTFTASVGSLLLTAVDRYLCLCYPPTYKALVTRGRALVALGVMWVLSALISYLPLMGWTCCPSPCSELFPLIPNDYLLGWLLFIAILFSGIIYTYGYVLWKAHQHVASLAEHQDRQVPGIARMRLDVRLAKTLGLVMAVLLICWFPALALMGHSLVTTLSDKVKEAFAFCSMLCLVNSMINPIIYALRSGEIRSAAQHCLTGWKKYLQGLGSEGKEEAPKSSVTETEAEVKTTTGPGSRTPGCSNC
Experiment: [3H]CP55,940 radioligand competition binding, membranes of HEK/GIRK cells expressing rat CB2
Parameters: expressed in transfected cells; host or cells: HEK293 cells stably co-expressing GIRK1/2 channels
Excerpt: Agonists that bind to the receptor at the site occupied by the endogenous ligand (2-AG in this case) are considered orthosteric agonists. It is also possible for an agonist to bind and activate a receptor via a site other than the orthosteric site; these ligands are classified as allosteric agonists. To characterize the nature of the agonist activity of mycophenolate mofetil, we tested its ability to bind to the receptor in equilibrium binding assays using membranes harvested from cells expressing rCB2 using the radioligand [^3H]CP55,940 [40, 60]. CP55,940 has an affinity for both CB1 and CB2 receptors in the low nM range and is reported to bind to the site occupied by 2-AG [61].
Competition binding concentration–response curves were obtained in the presence of 0.5 nM [^3H]CP55,940 using membranes harvested from HEK/GIRK cells expressing rCB2. Data represent the mean ± SEM of three independent experiments run in triplicate. Data are plotted as a percentage of specific [^3H]CP55,940 binding. Non-specific binding was determined in the presence of 10 µM CP55,940.
Membranes were made from HEK/GIRK cells stably expressing rat CB2. Radioligand competition binding assays were performed as previously described, with minor modifications. In brief, compounds were serially diluted into assay buffer with 0.1% bovine serum albumin (BSA) and added to each well of a 96-well plate, along with 20 μg/well cell membrane and approximately 500 pM [^3H]-CP55,940 (specific activity = 104 Ci/mmol, PerkinElmer, Waltham, MA, USA). Following a 3-h incubation period on a shaker at room temperature, membrane-bound ligand was separated from free ligand by filtration through glass fiber 96-well filter plates (Unifilter-96, GF/B; PerkinElmer, Waltham, MA, USA). Forty microliters of scintillation fluid were added to each well, and membrane-bound radioactivity was determined by scintillation counting (Microbeta2; Revvity, Waltham, MA, USA). Nonspecific binding was determined using 10 μM of cold CP55,940.

`CCCCC/C=C\C/C=C\C/C=C\C/C=C\CCCC(=O)OC(CO)CO` [2-AG, 2-Arachidonoylglycerol] was tested, and the Ki was 3.47 µM.

With `COc1ccc(C(=O)c2c(C)n(CCN3CCOCC3)c3cc(I)ccc23)cc1` [AM630] the “rCB2 Binding Affinity pKi ± SEM” value (0.5 nM [3H]CP55,940, equilibrium) was 7.61 ± 0.29.
